From US12239643B2, “Therapeutic agent for inflammatory diseases, autoimmune diseases, fibrotic diseases, and cancer diseases” (MEIJI SEIKA PHARMA CO., LTD., priority 2018, dated 2025) come the findings set out here.

For the first test, the system named is PDE4. The test is described as follows: Evaluation of PDE4 inhibitory activity, scintillation proximity assay. The class given is biochemical. Particulars: scintillation proximity assay; class symbols of Evaluation 1; read-out: PDE4 Inhibitory Activity (concentration for the inhibition rate of 50%, IC50), Evaluation 1. A digest of the protocol:
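IC50 was derived from inhibition curves, referenced to an enzyme-free blank and a DMSO-only control. Compound, PDE4 preparation and tritiated cAMP reacted 120 min at RT in Tris-HCl buffer (pH 7.4) with MgCl2, EGTA and BSA; YSi-SPA beads with ZnSO4 bound product before scintillation counting.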
On the technique in general: In a scintillation proximity assay essentially only radioactivity close to the scintillant gives light.
In the case of `OC(c1ccc(-c2nccs2)c2oc(N3CC4CCC(C3)N4)nc12)C(F)F` (centres unmarked) [Example 128, 1-(2-(3,8-Diazabicyclo[3.2.1]octan-3-yl)-7-(thiazol-2-yl)benzo[d]oxazol-4-yl)-2,2-difluoroethan-1-ol], the IC50 is less than 100 nM. Consider `OC(c1cc(-c2nccs2)c2oc(N3CC4CC(C3)N4)nc2c1)C(F)(F)F` (centres unmarked) [Example 135, 1-(2-(3,6-Diazabicyclo[3.1.1]heptan-3-yl)-7-(thiazol-2-yl)benzo[d]oxazol-5-yl)-2,2,2-trifluoroethan-1-ol], for which the IC50 is less than 100 nM. Still for that read-out and setting: the result for `FC(F)(F)c1ccc(-c2nccs2)c2oc(N3CC4CCC(C3)N4)nc12` [Example 31, 2-(3,8-Diazabicyclo[3.2.1]octan-3-yl)-7-(thiazol-2-yl)-4-(trifluoromethyl)benzo[d]oxazole] reads less than 100 nM.

For `Oc1cc(-c2nccs2)c2oc(N3CC4CCCC(C3)N4)nc2c1` [Example 65, 2-(3,9-Diazabicyclo[3.3.1]nonan-3-yl)-7-(thiazol-2-yl)benzo[d]oxazol-5-ol], the IC50 is less than 100 nM. On the same count and under the same terms, next, `COc1cc(-c2nccs2)c2oc(N3CC4CC(C3)N4)nc2c1` [Example 61, 2-(3,6-Diazabicyclo[3.1.1]heptan-3-yl)-5-methoxy-7-(thiazol-2-yl)benzo[d]oxazole]: less than 100 nM. On the same count and under the same terms, the result for `CC(=O)Nc1cc(-c2nccs2)c2oc(N3CC4CCC(C3)N4)nc2c1` [Example 50, N-(2-(3,8-diazabicyclo[3.2.1]octan-3-yl)-7-(thiazol-2-yl)benzo[d]oxazol-5-yl)acetamide] reads less than 100 nM; that for `CS(=O)(=O)c1cc(-c2nccs2)c2oc(N3CC4CCC(C3)N4)nc2c1` [Example 45, 2-(3,8-Diazabicyclo[3.2.1]octan-3-yl)-5-(methylsulfonyl)-7-(thiazol-2-yl)benzo[d]oxazole], less than 100 nM.

The test is the same for the next values; noted with them: scintillation proximity assay; read-out: PDE4 Inhibitory Activity (Evaluation 1; concentration for the inhibition rate of 50%).
With `COC(C)c1ccc(-c2nccs2)c2oc(N3CC4CCC(C3)N4)nc12` (centres unmarked) [Example 242, 2-(3,8-Diazabicyclo[3.2.1]octan-3-yl)-4-(1-methoxyethyl)-7-(thiazol-2-yl)benzo[d]oxazole], the IC50 was less than 100 nM. Still for that read-out and setting: the result for `FC(F)(F)COC(c1ccc(-c2nccs2)c2oc(N3CC4CC(C3)N4)nc12)C(F)(F)F` (centres unmarked) [Example 223, 2-(3,6-Diazabicyclo[3.1.1]heptan-3-yl)-7-(thiazol-2-yl)-4-(2,2,2-trifluoro-1-(2,2,2-trifluoroethoxy)ethyl)benzo[d]oxazole] reads less than 100 nM. The same measure, in the same setting: next, `OCCOC(c1ccc(-c2nccs2)c2oc(N3CC4CC(C3)N4)nc12)C(F)(F)F` (centres unmarked) [Example 227, 2-(1-(2-(3,6-Diazabicyclo[3.1.1]heptan-3-yl)-7-(thiazol-2-yl)benzo[d]oxazol-4-yl)-2,2,2-trifluoroethoxy)ethan-1-ol]: less than 100 nM; `c1csc(-c2ccc(C3CCC3)c3nc(N4CC5CC(C4)N5)oc23)n1` [Example 414, 2-(3,6-Diazabicyclo[3.1.1]heptan-3-yl)-4-cyclobutyl-7-(thiazol-2-yl)benzo[d]oxazole]: less than 100 nM; `COC(C)c1cc(-c2nccs2)c2oc(N3CC4CCC(C3)N4)nc2c1OC(F)(F)F` (centres unmarked) [Example 210, 2-(3,8-Diazabicyclo[3.2.1]octan-3-yl)-5-(1-methoxyethyl)-7-(thiazol-2-yl)-4-(trifluoromethoxy)benzo[d]oxazole]: less than 100 nM. Regarding `COC(C)(c1cc(-c2nccs2)c2oc(N3CC4CCC(C3)N4)nc2c1OC(F)(F)F)C(F)(F)F` (centres unmarked) [Example 215, 2-(3,8-Diazabicyclo[3.2.1]octan-3-yl)-7-(thiazol-2-yl)-5-(1,1,1-trifluoro-2-methoxypropan-2-yl)-4-(trifluoromethoxy)benzo[d]oxazole], the IC50 is less than 100 nM. As for `c1csc(-c2ccc(C3CC3)c3nc(N4CC5CC(C4)N5)oc23)n1` [Example 344, 2-(3,6-Diazabicyclo[3.1.1]heptan-3-yl)-4-cyclopropyl-7-(thiazol-2-yl)benzo[d]oxazole], the IC50 is less than 100 nM.
